Assays:
[1] = system: Magnaporthe grisea (Pyricularia oryzae); assay: whole plant or invertebrate; format: in vivo; conditions: foliar, read-out: control of Magnaporthe grisea
[2] = system: Monographella nivalis (Microdochium nivale); assay: Monographella nivalis (Microdochium nivale) / liquid culture (foot rot cereals); format: cell-based; conditions: 96 h, growth inhibition photometrically 4-5 days after application, compared to untreated control
Fusarium culmorum = assay: microbe, parasite or virus in culture; format: cell-based; conditions: read-out: control of Fusarium culmorum
[3] = system: Botryotinia fuckeliana (Botrytis cinerea); assay: Botryotinia fuckeliana (Botrytis cinerea) / liquid culture (Gray mould); format: cell-based; conditions: growth inhibition photometrically 3-4 days after application, compared to untreated control
[4] = system: Glomerella lagenarium (Colletotrichum lagenarium); assay: Glomerella lagenarium (Colletotrichum lagenarium) / liquid culture (Anthracnose); format: cell-based; conditions: Colletotrichum orbiculare, growth inhibition photometrically 3-4 days after application, compared to untreated control
Gaeumannomyces graminis = Gaeumannomyces graminis / liquid culture (Take-all of cereals); format: cell-based; conditions: growth inhibition photometrically 4-5 days after application, compared to untreated control
[5] = system: Magnaporthe grisea (Pyricularia oryzae); assay: microbe, parasite or virus in culture; format: cell-based; conditions: read-out: control of Magnaporthe grisea
Sclerotinia sclerotiorum = Sclerotinia sclerotiorum / liquid culture (cottony rot); conditions: read-out: control of Sclerotinia sclerotiorum
Description: Sclerotinia sclerotiorum/Liquid Culture (Cottony Rot)
Mycelia fragments of a newly grown liquid culture of the fungus are directly mixed into 5 nutrient broth (Vogels broth). After placing a (DMSO) solution of test compound into a microtiter plate (96-well format) the nutrient broth containing the fungal material is added. The test plates are incubated at 24° C. and the inhibition of growth is determined photometrically 3-4 days after application.

Compound | pest or weed control at 200 ppm [1] [%] | melting point [°C] | inhibition of growth at 20 ppm [2] [%] | inhibition of growth at 20 ppm (Fusarium culmorum) [%] | inhibition of growth at 20 ppm [3] [%] | inhibition of growth at 20 ppm [4] [%] | inhibition of growth at 20 ppm (Gaeumannomyces graminis) [%] | inhibition of growth at 60 ppm [5] [%] | inhibition of growth at 20 ppm (Sclerotinia sclerotiorum) [%]
Cc1cccc2c(C3=NC(C)(C)C(C)(C)c4c(F)cccc43)cnn12 [Compound E-59, 5-fluoro-3,3,4,4-tetramethyl-1-(7-methylpyrazolo[1,5-a]pyridin-3-yl)isoquinoline] | ≥ 50 | 134 to 136 | ≥ 80 | ≥ 80 | ≥ 80 | ≥ 80 | – | – | –
CC1(C)Cc2ccccc2C(c2cnc3c(Br)cccn23)=N1 [Compound E-41, 1-(8-bromoimidazo[1,2-a]pyridin-3-yl)-3,3-dimethyl-4H-isoquinoline] | – | 132 to 133 | – | – | – | – | ≥ 80 | – | –
Cc1ccc2c(C3=NC(C)(C)C(C)(C)c4c(F)cccc43)cnn2c1C [Compound E-63, 1-(6,7-dimethylpyrazolo[1,5-a]pyridin-3-yl)-5-fluoro-3,3,4,4-tetramethyl-isoquinoline] | ≥ 50 | 175 to 176 | – | ≥ 80 | ≥ 80 | ≥ 80 | ≥ 80 | ≥ 80 | –
COc1cccc2c(C3=NC(C)(C)C(F)(F)c4ccccc43)cnn12 [Compound E-92, 4,4-difluoro-1-(7-methoxypyrazolo[1,5-a]pyridin-3-yl)-3,3-dimethyl-isoquinoline] | ≥ 50 | 120 to 124 | ≥ 80 | ≥ 80 | ≥ 80 | ≥ 80 | ≥ 80 | ≥ 80 | –
Cc1cccn2c(C3=NC(C)(C)C(C)(C)c4ccccc43)cnc12 [Compound E-33, 3,3,4,4-tetramethyl-1-(8-methylimidazo[1,2-a]pyridin-3-yl)isoquinoline] | ≥ 50 | – | ≥ 80 | ≥ 80 | ≥ 80 | ≥ 80 | – | – | –
COc1ccc2ncc(C3=NC(C)(C)C(C)(C)c4c(F)cccc43)n2c1 [Compound E-25, 5-fluoro-1-(6-methoxyimidazo[1,2-a]pyridin-3-yl)-3,3,4,4-tetramethyl-isoquinoline] | – | 214 to 215 | – | – | – | – | ≥ 80 | – | –
Cc1ccn2c(C3=NC(C)(C)C(C)(C)c4c(F)cccc43)cnc2c1 [Compound E-31, 5-fluoro-3,3,4,4-tetramethyl-1-(7-methylimidazo[1,2-a]pyridin-3-yl)isoquinoline] | ≥ 50 | – | – | ≥ 80 | ≥ 80 | ≥ 80 | – | – | –
Cc1cccn2c(C3=NCC(C)(C)c4ccccc43)cnc12 [Compound E-51, 4,4-dimethyl-1-(8-methylimidazo[1,2-a]pyridin-3-yl)-3H-isoquinoline] | – | – | – | – | ≥ 80 | – | – | ≥ 80 | ≥ 80
Cc1cccn2ncc(C3=NC4(CC4)C4(CC4)c4ccccc43)c12 [Compound E-95] | ≥ 50 | – | – | – | ≥ 80 | ≥ 80 | – | ≥ 80 | –
CC1(C)N=C(c2cnc3ccccn23)c2cccc(F)c2C1(C)C [Compound E-1, 5-fluoro-1-imidazo[1,2-a]pyridin-3-yl-3,3,4,4-tetramethyl-isoquinoline] | – | 129 to 130 | – | ≥ 80 | ≥ 80 | ≥ 80 | ≥ 80 | – | –
CC1(C)N=C(c2cnn3ccccc23)c2cccc(F)c2C1(C)C [Compound E-58, 5-fluoro-3,3,4,4-tetramethyl-1-pyrazolo[1,5-a]pyridin-3-yl-isoquinoline] | – | 124 to 126 | – | – | ≥ 80 | ≥ 80 | ≥ 80 | – | –
Cc1cccn2c(C3=NCC4(CCC4)c4ccccc43)cnc12 [Compound E-53, 1-(8-methylimidazo[1,2-a]pyridin-3-yl)spiro[3H-isoquinoline-4,1′-cyclobutane]] | – | 127 to 129 | ≥ 80 | – | ≥ 80 | – | – | ≥ 80 | –
Cc1cccn2c(C3=NC(C)(C)C(C)(C)c4c(F)cccc43)cnc12 [Compound E-9, 5-fluoro-3,3,4,4-tetramethyl-1-(8-methylimidazo[1,2-a]pyridin-3-yl)isoquinoline] | ≥ 50 | 160 to 161 | ≥ 80 | ≥ 80 | ≥ 80 | ≥ 80 | ≥ 80 | – | –
Cc1ccc2c(C3=NC(C)(C)C(=O)c4cc(F)ccc43)cnn2c1C [Compound E-74, 1-(6,7-dimethylpyrazolo[1,5-a]pyridin-3-yl)-6-fluoro-3,3-dimethyl-isoquinolin-4-one] | – | 168 to 170 | – | ≥ 80 | ≥ 80 | ≥ 80 | – | ≥ 80 | –
CC1(C)N=C(c2cnc3c(C#N)cccn23)c2cccc(F)c2C1(C)C [Compound E-38, 3-(5-fluoro-3,3,4,4-tetramethyl-1-isoquinolyl)imidazo[1,2-a]pyridine-8-carbonitrile] | – | – | ≥ 80 | – | ≥ 80 | ≥ 80 | ≥ 80 | – | –
CC1(C)N=C(c2cnc3c(Br)cccn23)c2cccc(F)c2C1(F)F [Compound E-37, 1-(8-bromoimidazo[1,2-a]pyridin-3-yl)-4,4,5-trifluoro-3,3-dimethyl-isoquinoline] | – | – | – | – | – | ≥ 80 | ≥ 80 | – | –
Cc1ccn2c(C3=NC(C)(C)C(C)(C)c4c(F)cccc43)cnc2c1C [Compound E-50, 1-(7,8-dimethylimidazo[1,2-a]pyridin-3-yl)-5-fluoro-3,3,4,4-tetramethyl-isoquinoline] | – | 185 to 186 | – | ≥ 80 | ≥ 80 | ≥ 80 | – | ≥ 80 | ≥ 80
C#Cc1ccc2c(C3=NC(C)(C)C(F)(F)c4ccccc43)cnn2c1 [Compound E-90, 1-(6-ethynylpyrazolo[1,5-a]pyridin-3-yl)-4,4-difluoro-3,3-dimethyl-isoquinoline] | – | 145 to 147 | ≥ 80 | – | – | ≥ 80 | ≥ 80 | ≥ 80 | –
CC1(C)N=C(c2cnc3c(Cl)c(Cl)ccn23)c2ccccc2C1(F)F [Compound E-56, 1-(7,8-dichloroimidazo[1,2-a]pyridin-3-yl)-4,4-difluoro-3,3-dimethyl-isoquinoline] | – | > 210 | – | – | ≥ 80 | – | – | ≥ 80 | –
Cc1c(Br)ccc2c(C3=NC(C)(C)C(=O)c4ccccc43)cnn12 [Compound E-78, 1-(6-bromo-7-methyl-pyrazolo[1,5-a]pyridin-3-yl)-3,3-dimethyl-isoquinolin-4-one] | – | 166 to 168 | ≥ 80 | ≥ 80 | ≥ 80 | ≥ 80 | – | ≥ 80 | –
Cc1cccn2c(C3=NC(C)(C)C(F)(F)c4ccccc43)cnc12 [Compound E-45, 4,4-difluoro-3,3-dimethyl-1-(8-methylimidazo[1,2-a]pyridin-3-yl)isoquinoline] | ≥ 50 | – | ≥ 80 | ≥ 80 | ≥ 80 | ≥ 80 | – | – | –
Cc1ccn2c(C3=NC(C)(C)C(F)(F)c4ccccc43)cnc2c1 [Compound E-55, 4,4-difluoro-3,3-dimethyl-1-(7-methylimidazo[1,2-a]pyridin-3-yl)isoquinoline] | – | – | – | ≥ 80 | ≥ 80 | ≥ 80 | – | ≥ 80 | ≥ 80
CC1(C)N=C(c2cnc3c(Br)cccn23)c2cccc(F)c2C1(C)C [Compound E-8, 1-(8-bromoimidazo[1,2-a]pyridin-3-yl)-5-fluoro-3,3,4,4-tetramethyl-isoquinoline] | ≥ 50 | – | – | ≥ 80 | ≥ 80 | ≥ 80 | – | – | –
Cc1ccc2c(C3=NC4(CC4)C4(CC4)c4ccccc43)cnn2c1C [Compound E-94] | ≥ 50 | – | ≥ 80 | ≥ 80 | – | ≥ 80 | ≥ 80 | ≥ 80 | –
CC1(C)N=C(c2cnc3c(F)cccn23)c2cccc(F)c2C1(C)C [Compound E-6, 5-fluoro-1-(8-fluoroimidazo[1,2-a]pyridin-3-yl)-3,3,4,4-tetramethyl-isoquinoline] | ≥ 50 | 156 to 157 | ≥ 80 | ≥ 80 | ≥ 80 | ≥ 80 | ≥ 80 | – | –
